# Assays:
# [1] = Intrinsic clearance in human liver microsomes; format: in vitro ADME
# Method: Mean values for each species were calculated from 3 replicates.
# Intrinsic Clearance in Rat and Human Liver Microsomes
# The in vitro intrinsic clearance (CL int) was investigated in commercially obtained hepatic microsomes from rat and human donors using the substrate depletion (i.e., loss-of-parent vs. time, or t 1/2 method) approach with analyte detection via liquid chromatography-tandem mass spectrometry (LC-MS/MS). For each species, mean %parent remaining values at each time point were calculated from replicates raw data (analyte:IS peak area ratios) and used to determine in vitro t 1/2 and CLint.
# Experiments were carried out using a robot-assisted (TECAN model Evo 200). Compound was incubated (1 µM final concentration) in buffer (100 mM potassium phosphate pH 7.4 with 3 mM MgCl2) containing hepatic microsomes (0.5 mg/mL final concentration) from multiple species, discretely, at 37 °C under constant orbital shaking. After 5 minutes (pre-incubation), reactions were initiated by addition of nicotinamide adenine dinucleotide phosphate (NADPH, 1 mM final concentration). At selected time intervals (0, 3, 7, 15, 25, and 45 minutes) post-addition of NADPH, aliquots (50 µL) were taken and placed into a 96-shallow-well plate containing ice cold acetonitrile (150 µL) with carbamazepine (IS, 50 nM). The plates were then centrifuged (3000 rcf at 4 °C) for 10 minutes. The supernatants were transferred to a new 96-shallow-well daughter plate and diluted (1:1 v/v) with water (Milli-Q filtered). The plates were then sealed in preparation for LC-MS/MS analysis (see below).
# Raw LC-MS/MS peak area data generated from the assay samples were used to construct natural log-transformed %parent remaining vs. time plots (using t = 0 minute post-NADPH addition sample data as starting point set to 100%). In vitro compound half-life (t 1/2) values were obtained using the following […]
# k is the slope from linear regression analysis of the natural log-transformed data (using means from Where all replicates at each time point). Resulting t 1/2 values were then used to calculate hepatic CLint values according to the following equation and with the use of species-specific scale-up factors for liver weight (grams) per total body weight (kg): […]
# CLint = in vitro t1/2 x 0.5 mg microsomes x 1 gram liver x kg body wt aScale-up factors used are 45 (rat) and 20 (human).4
# Predicted hepatic clearance (CLhep) was calculated using the following equation: […]
# Qh represents hepatic blood flow (mL/min/kg): 21 for human, 70 for rat, and 90 for mouse.
# Prepared samples were injected (10 µL each) onto an AB Sciex Triple Quad 4500 mass spectrometer system with an Agilent 1260 Infinity II pump and autosampler. Mass spectrometer conditions are described in Table S1. Quantitation of compounds was performed via AB Sciex Multiquant software using the raw analyte:IS peak area ratios. The typical detection range was 0.5 ng/mL to ≥ 5,000 ng/mL utilizing a quadratic equation regression with 1/x2 weighting.
# Correction for dilution of all brain samples (in extraction buffer and subsequently in blank plasma, as previously described) was performed post-quantitation. The corrections for dilution in extraction buffer employed correction factors specific to each brain weight (not shown).
# [2] = biological target: Interleukin IL-1 R1 (Homo sapiens, UniProt P14778); experiment: Lead Profiling Screen, Eurofins Panlabs; format: binding; conditions: Interleukin IL-1 R1, hum, read-out: % inh at 10 μM
# [3] = biological target: Melatonin MT1 (Homo sapiens, UniProt P48039); experiment: Lead Profiling Screen, Eurofins Panlabs; format: binding; conditions: Melatonin MT1, hum, read-out: % inh at 10 μM
# [4] = biological target: Neuropeptide Y Y2 (Homo sapiens, UniProt P49146); experiment: Lead Profiling Screen, Eurofins Panlabs; format: binding; conditions: Neuropeptide Y Y2, hum, read-out: % inh at 10 μM
# [5] = biological target: Opiate δ1 (OP1, DOP) (Homo sapiens, UniProt P41143); experiment: Lead Profiling Screen, Eurofins Panlabs; format: binding; conditions: hum, read-out: % inh at 10 μM
# [6] = biological target: hERG potassium channel (Homo sapiens, UniProt Q12809); experiment: Lead Profiling Screen, Eurofins Panlabs; format: binding; conditions: hum, read-out: % inh at 10 μM
# [7] = biological target: Serotonin (5-Hydroxytryptamine) 5-HT1A (Homo sapiens, UniProt P08908); experiment: Lead Profiling Screen, Eurofins Panlabs; format: binding; conditions: Serotonin 5-HT1A, hum, read-out: % inh at 10 μM
# [8] = biological target: Sigma σ1 (Homo sapiens, UniProt Q99720); experiment: Lead Profiling Screen, Eurofins Panlabs; format: binding; conditions: Sigma σ1, hum, read-out: % inh at 10 μM
# Sequence of Sigma σ1 (Q99720 whole entry): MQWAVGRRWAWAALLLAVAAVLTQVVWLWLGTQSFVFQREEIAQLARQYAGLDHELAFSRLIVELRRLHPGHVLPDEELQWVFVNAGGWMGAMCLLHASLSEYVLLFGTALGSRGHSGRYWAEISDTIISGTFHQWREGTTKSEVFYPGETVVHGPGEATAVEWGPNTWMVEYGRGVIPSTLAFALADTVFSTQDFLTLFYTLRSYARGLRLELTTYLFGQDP
# Sequence of hERG potassium channel (Q12809 whole entry): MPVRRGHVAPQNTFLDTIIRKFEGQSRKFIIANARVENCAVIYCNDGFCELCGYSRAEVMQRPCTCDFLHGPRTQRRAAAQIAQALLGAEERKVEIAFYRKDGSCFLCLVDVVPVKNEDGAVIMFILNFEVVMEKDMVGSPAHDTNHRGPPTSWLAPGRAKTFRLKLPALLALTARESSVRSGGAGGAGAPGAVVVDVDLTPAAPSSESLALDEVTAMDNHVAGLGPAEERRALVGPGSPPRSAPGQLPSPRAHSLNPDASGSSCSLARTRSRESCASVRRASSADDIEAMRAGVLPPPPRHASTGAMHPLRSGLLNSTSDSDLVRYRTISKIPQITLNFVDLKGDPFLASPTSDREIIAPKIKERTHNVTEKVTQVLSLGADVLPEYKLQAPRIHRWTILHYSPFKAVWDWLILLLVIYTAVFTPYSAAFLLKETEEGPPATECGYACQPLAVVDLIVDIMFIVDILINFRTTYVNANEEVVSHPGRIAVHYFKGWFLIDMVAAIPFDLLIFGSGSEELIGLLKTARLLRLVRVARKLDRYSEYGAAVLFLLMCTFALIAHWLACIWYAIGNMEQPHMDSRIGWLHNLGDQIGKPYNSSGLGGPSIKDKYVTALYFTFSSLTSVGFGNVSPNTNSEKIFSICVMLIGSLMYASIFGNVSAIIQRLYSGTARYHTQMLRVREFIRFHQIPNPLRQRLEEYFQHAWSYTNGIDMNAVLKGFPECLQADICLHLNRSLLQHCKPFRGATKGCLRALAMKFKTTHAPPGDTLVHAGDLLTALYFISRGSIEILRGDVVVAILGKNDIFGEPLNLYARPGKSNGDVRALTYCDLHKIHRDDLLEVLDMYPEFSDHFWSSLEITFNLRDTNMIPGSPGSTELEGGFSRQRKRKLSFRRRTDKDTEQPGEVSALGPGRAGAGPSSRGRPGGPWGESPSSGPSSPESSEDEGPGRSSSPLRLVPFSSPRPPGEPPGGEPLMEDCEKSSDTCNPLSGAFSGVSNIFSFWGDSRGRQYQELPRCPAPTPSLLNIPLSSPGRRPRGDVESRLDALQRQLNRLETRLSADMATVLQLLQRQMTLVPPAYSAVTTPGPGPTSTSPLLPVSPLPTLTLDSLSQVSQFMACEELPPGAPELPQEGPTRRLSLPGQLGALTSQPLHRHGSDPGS
# Sequence of Melatonin MT1 (P48039 whole entry): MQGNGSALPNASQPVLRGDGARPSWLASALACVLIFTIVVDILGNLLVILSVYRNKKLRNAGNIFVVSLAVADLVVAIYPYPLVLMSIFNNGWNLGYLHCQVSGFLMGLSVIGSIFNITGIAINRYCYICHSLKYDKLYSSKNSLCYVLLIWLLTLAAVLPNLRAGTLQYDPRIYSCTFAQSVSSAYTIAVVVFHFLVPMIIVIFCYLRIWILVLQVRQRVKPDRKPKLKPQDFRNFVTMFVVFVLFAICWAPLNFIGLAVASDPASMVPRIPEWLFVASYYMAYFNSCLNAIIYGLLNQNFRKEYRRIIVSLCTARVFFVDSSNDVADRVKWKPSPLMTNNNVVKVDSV
# Sequence of Opiate δ1 (OP1, DOP) (P41143 whole entry): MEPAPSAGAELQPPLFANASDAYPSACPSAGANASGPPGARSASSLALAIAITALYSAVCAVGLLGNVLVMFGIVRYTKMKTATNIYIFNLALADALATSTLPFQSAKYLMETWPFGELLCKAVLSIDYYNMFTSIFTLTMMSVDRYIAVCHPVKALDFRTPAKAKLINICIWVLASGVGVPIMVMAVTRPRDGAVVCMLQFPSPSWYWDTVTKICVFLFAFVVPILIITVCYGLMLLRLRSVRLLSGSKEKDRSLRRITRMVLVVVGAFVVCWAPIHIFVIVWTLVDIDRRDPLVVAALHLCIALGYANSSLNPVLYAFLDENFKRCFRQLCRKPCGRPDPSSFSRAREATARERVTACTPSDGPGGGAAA
# Sequence of Neuropeptide Y Y2 (P49146 whole entry): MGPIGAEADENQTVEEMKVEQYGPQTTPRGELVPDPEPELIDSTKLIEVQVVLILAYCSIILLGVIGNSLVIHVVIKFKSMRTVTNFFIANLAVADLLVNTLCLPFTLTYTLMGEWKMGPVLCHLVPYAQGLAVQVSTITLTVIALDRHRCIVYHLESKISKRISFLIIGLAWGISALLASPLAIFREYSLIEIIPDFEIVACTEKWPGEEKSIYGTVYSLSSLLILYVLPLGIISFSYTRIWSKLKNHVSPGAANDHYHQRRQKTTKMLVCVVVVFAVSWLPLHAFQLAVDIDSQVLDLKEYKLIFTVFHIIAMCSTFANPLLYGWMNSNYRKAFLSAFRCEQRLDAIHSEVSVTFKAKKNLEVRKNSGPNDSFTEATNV
# Sequence of Serotonin (5-Hydroxytryptamine) 5-HT1A (P08908 whole entry): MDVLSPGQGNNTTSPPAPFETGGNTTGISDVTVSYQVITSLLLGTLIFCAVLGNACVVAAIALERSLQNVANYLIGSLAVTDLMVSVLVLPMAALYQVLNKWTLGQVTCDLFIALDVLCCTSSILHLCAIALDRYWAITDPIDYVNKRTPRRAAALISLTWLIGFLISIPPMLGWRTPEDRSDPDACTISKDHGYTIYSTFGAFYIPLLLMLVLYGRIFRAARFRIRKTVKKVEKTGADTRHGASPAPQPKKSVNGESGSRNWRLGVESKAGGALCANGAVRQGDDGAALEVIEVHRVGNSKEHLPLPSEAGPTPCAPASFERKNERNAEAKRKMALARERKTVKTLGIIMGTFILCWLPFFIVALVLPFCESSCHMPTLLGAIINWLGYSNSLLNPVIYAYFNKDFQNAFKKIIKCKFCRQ
# Sequence of Interleukin IL-1 R1 (P14778 18-569): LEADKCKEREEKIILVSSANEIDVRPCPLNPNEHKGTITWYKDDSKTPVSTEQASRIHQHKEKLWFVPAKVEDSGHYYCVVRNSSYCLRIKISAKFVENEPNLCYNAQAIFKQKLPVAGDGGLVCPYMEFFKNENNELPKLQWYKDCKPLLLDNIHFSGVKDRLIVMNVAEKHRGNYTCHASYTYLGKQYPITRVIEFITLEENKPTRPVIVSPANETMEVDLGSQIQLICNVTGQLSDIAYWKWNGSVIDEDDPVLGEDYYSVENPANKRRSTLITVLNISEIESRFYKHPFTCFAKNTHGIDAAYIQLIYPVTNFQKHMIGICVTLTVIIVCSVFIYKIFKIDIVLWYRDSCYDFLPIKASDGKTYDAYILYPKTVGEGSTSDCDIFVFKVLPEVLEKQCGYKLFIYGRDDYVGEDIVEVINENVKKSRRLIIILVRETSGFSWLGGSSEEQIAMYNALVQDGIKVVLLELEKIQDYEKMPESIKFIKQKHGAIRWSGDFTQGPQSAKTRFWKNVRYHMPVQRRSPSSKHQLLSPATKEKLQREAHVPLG
smiles,measurement,setting,value
Cc1cc(Oc2cnn(C)c2)cc(C(=O)Nc2ccc(F)cn2)n1 [22iA],"CLint scaled at 40 min, 1 µM","[1]; pH 7.4, human liver microsomes",9 mL/min/kg
same,"CLhep, human",[1]; predicted hepatic clearance based on microsomal CLint,6 mL/min/kg
same,inhibition at 10 µM,[2],-7%
same,inhibition at 10 µM,[3],15%
same,inhibition at 10 µM,[4],-5%
same,inhibition at 10 µM,[5],3%
same,inhibition at 10 µM,[6],14%
same,inhibition at 10 µM,[7],3%
same,inhibition at 10 µM,[8],0%

# Source: article PMC11647725, “Discovery of 4-(5-Membered)Heteroarylether-6-methylpicolinamide Negative Allosteric Modulators of Metabotropic Glutamate Receptor Subtype 5” (ACS Medicinal Chemistry Letters, 2024)
